We go through ten compounds from patent US20110092505A1, “ORGANIC COMPOUNDS” (priority 2008, published 2011).

The first assay relates to agonist-dependent nuclear export of HDAC5. The assay is described as follows: HDAC5 nuclear export assay (GFP-HDAC5, Cellomics imaging). Type of assay: cell-based. Conditions: Rattus norvegicus, Ventricular myocyte, 2 h, neonatal rat ventricular myocytes, PGF2α stimulation, two hours; read-out: Inhibitory Activity HDAC. The protocol:
Compounds are evaluated in the HDAC5 nuclear export assay, a 384-well plate-based assay that enables high throughput screening (HTS) to identify small molecules that block agonist-dependent nuclear export of HDAC5. […] Neonatal rat ventricular myocytes (NRVMs) are infected with GFP-HDAC5 encoding virus and plated on gelatin-coated 384-well dishes. […] Following two hours of stimulation, cells are fixed and GFP-HDAC5 localization quantified using the Cellomics system, which provides a read-out of relative fluorescence intensity in the cytoplasmic versus nuclear compartment.
Consider `NC(=O)c1cc(-c2ccnc(NC3CCCCC3)c2)nc(N2CCN3CCC[C@@H]3C2)c1` [2′-Cyclohexylamino-6-(R)-hexahydro-pyrrolo[1,2-a]pyrazin-2-yl-[2,4′]bipyridinyl-4-carboxylic acid amide], for which the IC50 stood at 616 nM.
Turning to `N#CCNC(=O)c1ccc(-c2ccnc(NC3CCCCC3)c2)nc1N1CCNCC1` [2′-Cyclohexylamino-6-piperazin-1-yl-[2,4′]bipyridinyl-5-carbonxylic acid cyanomethyl-amide], the IC50 is more than 1000 nM.
In the case of `COC(=O)c1ccc(-c2ccnc(NC3CCCCC3)c2)nc1N1CCNCC1` [2′-Cyclohexylamino-6-piperazin-1-yl-[2,4′]bipyridinyl-5-carboxylic acid methyl ester], the IC50 was more than 1000 nM.
Turning to `O=C1NCc2c1cc(-c1ccnc(NC3CCCCC3)c1)nc2N1CCn2cnnc2C1` [6-(2-Cyclohexylamino-pyridin-4yl)-4-(5,6-dihydro-8H-[1,2,4]triazolo[4,3-a]pyrazin-7-yl)-2,3-dihydro-pyrrolo[3,4-c]pyridin-1-one], the IC50 was more than 1000 nM.
For `c1cc(-c2cc(-c3nnco3)cc(N3CCNCC3)n2)cc(NC2CCCCC2)n1` [Cyclohexyl-(4-[1,3,4]oxadiazol-2-yl-6-piperazin-1-yl-[2,4′]bipyridinyl-2′-yl)-amine], the IC50 worked out at 126 nM.
As for `CS(=O)(=O)c1cc(-c2ccnc(NC3CCCCC3)c2)nc(N2CCNCC2)c1` [Cyclohexyl-(4-methanesulfonyl-6-piperazin-1-yl-[2,4′]bipyridinyl-2′-yl)-amine], the IC50 is more than 1000 nM.
Still for that read-out and setting: the same measure for `O=[N+]([O-])c1cc(-c2ccnc(NC3CCCCC3)c2)nc(N2CCNCC2)c1` [Cyclohexyl-(4-nitro-6-piperazin-1-yl-[2,4′]bipyridinyl-2′-yl)-amine]: 235 nM; for `Nc1cc(-c2ccnc(NC3CCCCC3)c2)nc(N2CCNCC2)c1` [N*2′*-Cyclohexyl-6-piperazin-1-yl-[2,4′]bipyridinyl-4,2′-diamine]: 421 nM.
Turning to `Fc1ccc(Nc2cc(-c3ccnc(NC4CCCCC4)c3)nc(N3CCNCC3)c2)cc1` [N*2′*-Cyclohexyl-N*4*-(4-fluoro-phenyl)-6-piperazin-1-yl-[2,4′]bipyridinyl-4,2′-diamine], the IC50 was 423 nM.

Still in this assay, the particulars now being: Rattus norvegicus, Ventricular myocyte, 2 h, read-out: Inhibitory Activity HDAC.
Consider `FC(F)(F)c1cc(-c2ccnc(NC3CCCCC3)c2)nc(N2CCNCC2)c1` [Cyclohexyl-(6-piperazin-1-yl-4-trifluoromethyl-[2,4′]bipyridinyl-2′-yl)amine], for which the IC50 is 342 nM.
